Measurements published in ChEMBL document CHEMBL4483862, “Open-source discovery of chemical leads for next-generation chemoprotective antimalarials” (2018).

Tested on: Plasmodium berghei
Test: Luciferase/luciferin-expressing antifolate-resistant parasites were used to infect a culture of HepG2 cells that were pre-incubated with compounds. Infected hepatocytes emit light due to the luciferase reaction. Assay results are presented as the percent inhibition of light emission compared to control. […]
Type: functional
Settings: sporozoite; for IC90: read-out: LUCIFERASE INFECTION ASSAY - IC90

Structure (SMILES) | IC90 [µM] | further results
Cn1cc(-c2cnc3cnc(-c4ccncc4)cn23)cn1 | > 11.9 | IC50 (HEPG2TOX_HILL_SLOPE 1.93, HEPG2TOX_R_SQUARED 0.473, PBLUC_HILL_SLOPE 0.98, PBLUC_R_SQUARED 0.306, read-out: LUCIFERASE INFECTION ASSAY - IC50): 10.1 µM
O=C1Nc2ccccc2/C1=C/c1ccccc1N1CCOCC1 | > 10.8 | IC50 (HEPG2TOX_HILL_SLOPE 1.93, HEPG2TOX_R_SQUARED 0.799, PBLUC_HILL_SLOPE 2.49, PBLUC_R_SQUARED 0.295, read-out: LUCIFERASE INFECTION ASSAY - IC50): 5.94 µM
Cc1cc(C)c(S(=O)(=O)Nc2cc(C)nn2-c2ccccn2)c(C)c1 | 3.28 | IC50 (HEPG2TOX_HILL_SLOPE 1.93, HEPG2TOX_R_SQUARED 0.937, PBLUC_HILL_SLOPE 16.1, PBLUC_R_SQUARED 0.725, read-out: LUCIFERASE INFECTION ASSAY - IC50): 2.86 µM
COc1ccc(C(OC(=O)c2ccccc2)c2nccc3ccccc23)cc1 (configuration not stated) | > 8.93 | IC50 (HEPG2TOX_HILL_SLOPE 1.92, HEPG2TOX_R_SQUARED 0.889, PBLUC_HILL_SLOPE 0.417, PBLUC_R_SQUARED 0.183, read-out: LUCIFERASE INFECTION ASSAY - IC50): 5.78 µM
COc1ccc(-c2cc3ncnc(NCc4ccc(N5CCN(C)CC5)nc4)c3s2)cc1 | 4.79 | IC50 (HEPG2TOX_HILL_SLOPE 1.93, HEPG2TOX_R_SQUARED 0.825, PBLUC_HILL_SLOPE 2.26, PBLUC_R_SQUARED 0.8, read-out: LUCIFERASE INFECTION ASSAY - IC50): 1.81 µM
N/C(=N\NC(=O)c1cccc(C(F)(F)F)c1)c1ccc(C(F)(F)F)cn1 | 1.42 | IC50 (HEPG2TOX_HILL_SLOPE 1.95, HEPG2TOX_R_SQUARED 0.695, PBLUC_HILL_SLOPE 3.85, PBLUC_R_SQUARED 0.803, read-out: LUCIFERASE INFECTION ASSAY - IC50): 0.802 µM
COc1ccc(-c2cnc3cnc(-c4cccc(OC)c4F)cn23)cc1 | 4.49 | IC50 (HEPG2TOX_HILL_SLOPE 1.94, HEPG2TOX_R_SQUARED 0.943, PBLUC_HILL_SLOPE 2.65, PBLUC_R_SQUARED 0.707, read-out: LUCIFERASE INFECTION ASSAY - IC50): 1.96 µM
N#Cc1c(Cl)cccc1N1CCCC1c1ccc2c(c1)OCCCO2 (configuration not stated) | > 10 | IC50 (HEPG2TOX_HILL_SLOPE 1.92, HEPG2TOX_R_SQUARED 0.934, read-out: LUCIFERASE INFECTION ASSAY - IC50): > 10 µM
CCC(C)NC(=O)c1c(NC(=O)c2ccc(OC)cc2)nc2ccc(C)cn12 (configuration not stated) | > 8.67 | IC50 (HEPG2TOX_HILL_SLOPE 1.94, HEPG2TOX_R_SQUARED 0.651, PBLUC_HILL_SLOPE 14.9, PBLUC_R_SQUARED 0.0352, read-out: LUCIFERASE INFECTION ASSAY - IC50): 7.7 µM
Cc1ccc(-n2nnnc2SCc2ccccc2Cl)c(C)c1 | > 9.97 | IC50 (HEPG2TOX_HILL_SLOPE 1.94, HEPG2TOX_R_SQUARED 0.896, PBLUC_HILL_SLOPE 2.04, PBLUC_R_SQUARED 0.254, read-out: LUCIFERASE INFECTION ASSAY - IC50): 6.75 µM
COc1cc(C(=O)N2CC=C(c3c[nH]c4ccccc34)CC2)cc(Cl)c1OC | > 10 | IC50 (HEPG2TOX_HILL_SLOPE 1.93, HEPG2TOX_R_SQUARED 0.934, PBLUC_HILL_SLOPE 11.8, PBLUC_R_SQUARED 0.218, read-out: LUCIFERASE INFECTION ASSAY - IC50): 8.9 µM
CCOc1ccc(-c2nnc(SCc3csc(Nc4ccc(C)cc4)n3)n2-c2ccccc2F)cc1 | > 10 | IC50 (HEPG2TOX_HILL_SLOPE 1.93, HEPG2TOX_R_SQUARED 0.706, PBLUC_HILL_SLOPE 2.19, PBLUC_R_SQUARED 0.586, read-out: LUCIFERASE INFECTION ASSAY - IC50): 5.29 µM
O=C(Nc1ccc(CN2CCCC2)cc1)c1ccc(-n2cnc3ccccc32)cc1 | > 10 | IC50 (HEPG2TOX_HILL_SLOPE 1.93, HEPG2TOX_R_SQUARED 0.859, PBLUC_HILL_SLOPE 3.59, PBLUC_R_SQUARED 0.621, read-out: LUCIFERASE INFECTION ASSAY - IC50): 5.74 µM
CC(C)c1ccc(Nc2nccc3nc(-c4cccc(F)c4)[nH]c23)cc1 | > 10 | IC50 (HEPG2TOX_HILL_SLOPE 1.91, HEPG2TOX_R_SQUARED 0.651, PBLUC_HILL_SLOPE 0.872, PBLUC_R_SQUARED 0.722, read-out: LUCIFERASE INFECTION ASSAY - IC50): 1.39 µM
C/C(=N\O)c1cnc(-c2ccccc2)s1 | 14.8 | IC50 (HEPG2TOX_HILL_SLOPE 1.93, HEPG2TOX_R_SQUARED 0.937, PBLUC_HILL_SLOPE 2.91, PBLUC_R_SQUARED 0.0759, read-out: LUCIFERASE INFECTION ASSAY - IC50): 6.95 µM
COc1cc(-c2[nH]nc3nccc(/C=C/c4ccccc4)c23)cc(OC)c1OC | 0.962 | IC50 (HEPG2TOX_HILL_SLOPE 1.93, HEPG2TOX_R_SQUARED 0.947, PBLUC_HILL_SLOPE 2.35, PBLUC_R_SQUARED 0.701, read-out: LUCIFERASE INFECTION ASSAY - IC50): 0.378 µM

Structure (SMILES) | IC90 [µM] | further results
Cc1ccccc1-c1ccc(CN2CCC3(CC2)C(=O)N(C)C(=O)N3CC(C)C)cc1 | 3.99 | IC50 (HEPG2TOX_HILL_SLOPE 1.94, HEPG2TOX_R_SQUARED 0.943, PBLUC_HILL_SLOPE 7.56, PBLUC_R_SQUARED 0.512, read-out: LUCIFERASE INFECTION ASSAY - IC50): 2.99 µM
O=C(Nc1cccc(Cl)c1)C1=COC2=NC(=O)N(Cc3ccccc3)CCN12 | > 10 | IC50 (HEPG2TOX_HILL_SLOPE 1.91, HEPG2TOX_R_SQUARED 0.961, read-out: LUCIFERASE INFECTION ASSAY - IC50): > 10 µM
COc1ccc(OC)c(CCNc2nc3cnc(-c4ccc(Cl)cc4)cc3n2C)c1 | 3.74 | IC50 (HEPG2TOX_HILL_SLOPE 1.93, HEPG2TOX_R_SQUARED 0.878, PBLUC_HILL_SLOPE 2.27, PBLUC_R_SQUARED 0.668, read-out: LUCIFERASE INFECTION ASSAY - IC50): 1.42 µM
CC(C)n1ncc2cc(C(=O)Nc3cccc4c3CCCC4)cnc21 | 8.92 | IC50 (HEPG2TOX_HILL_SLOPE 1.91, HEPG2TOX_R_SQUARED 0.864, PBLUC_HILL_SLOPE 1.61, PBLUC_R_SQUARED 0.644, read-out: LUCIFERASE INFECTION ASSAY - IC50): 2.28 µM
Fc1ccc(CSc2nnnn2-c2ccc3c(c2)OCO3)c(Cl)c1 | 8.12 | IC50 (HEPG2TOX_HILL_SLOPE 1.94, HEPG2TOX_R_SQUARED 0.929, PBLUC_HILL_SLOPE 1.23, PBLUC_R_SQUARED 0.52, read-out: LUCIFERASE INFECTION ASSAY - IC50): 1.37 µM
Cc1ccc(F)cc1C(=O)Nc1nc2ccccn2c1C(=O)NC1CCCCC1 | 1.12 | IC50 (HEPG2TOX_HILL_SLOPE 1.92, HEPG2TOX_R_SQUARED 0.809, PBLUC_HILL_SLOPE 11.3, PBLUC_R_SQUARED 0.608, read-out: LUCIFERASE INFECTION ASSAY - IC50): 0.921 µM
CC(C)Nc1nc(-c2ccccc2CO)c2sc(-c3ccccc3)cc2n1 | 0.949 | IC50 (HEPG2TOX_HILL_SLOPE 1.93, HEPG2TOX_R_SQUARED 0.921, PBLUC_HILL_SLOPE 16.9, PBLUC_R_SQUARED 0.634, read-out: LUCIFERASE INFECTION ASSAY - IC50): 0.833 µM
O=C(CSc1nnc(-c2c[nH]c3ccccc23)n1C1CC1)Nc1ccccc1N1CCCC1 | > 10 | IC50 (HEPG2TOX_HILL_SLOPE 1.91, HEPG2TOX_R_SQUARED 0.598, PBLUC_HILL_SLOPE 0.845, PBLUC_R_SQUARED 0.661, read-out: LUCIFERASE INFECTION ASSAY - IC50): 3.63 µM
N#Cc1sc(SCc2ccccc2)c2c1CC(c1ccccc1)CC2=O (configuration not stated) | > 8.79 | IC50 (HEPG2TOX_HILL_SLOPE 1.94, HEPG2TOX_R_SQUARED 0.866, PBLUC_HILL_SLOPE 1.6, PBLUC_R_SQUARED 0.401, read-out: LUCIFERASE INFECTION ASSAY - IC50): 7.45 µM
Cc1cc(C)c2c(=O)cc(C(=O)Nc3cccnc3)oc2c1 | 4.06 | IC50 (HEPG2TOX_HILL_SLOPE 1.93, HEPG2TOX_R_SQUARED 0.965, PBLUC_HILL_SLOPE 5.85, PBLUC_R_SQUARED 0.609, read-out: LUCIFERASE INFECTION ASSAY - IC50): 2.79 µM
O=C(NCCCc1nc2ccccc2[nH]1)c1[nH]nc2ccccc12 | 1.48 | IC50 (HEPG2TOX_HILL_SLOPE 1.95, 1.49, HEPG2TOX_R_SQUARED 0.808, 0.974, PBLUC_HILL_SLOPE 11.3, 2.85, PBLUC_R_SQUARED 0.579, 0.589, read-out: LUCIFERASE INFECTION ASSAY - IC50): 0.947 µM
Cc1cccc2c(=O)n(CC(=O)NCc3ccc(C(=O)N4CCCCC4)cc3)cnc12 | 3.14 | IC50 (HEPG2TOX_HILL_SLOPE 1.92, HEPG2TOX_R_SQUARED 0.972, PBLUC_HILL_SLOPE 11.2, PBLUC_R_SQUARED 0.559, read-out: LUCIFERASE INFECTION ASSAY - IC50): 2.58 µM
Brc1cc2c(cc1CSc1ncnc3ccccc13)OCO2 | 1.53 | IC50 (HEPG2TOX_HILL_SLOPE 1.93, HEPG2TOX_R_SQUARED 0.941, PBLUC_HILL_SLOPE 155, PBLUC_R_SQUARED 0.104, read-out: LUCIFERASE INFECTION ASSAY - IC50): 1.51 µM
CCn1c2ccccc2c2cc(Nc3c(C#N)c(=O)n(C)c(=O)n3C)ccc21 | 0.508 | IC50 (HEPG2TOX_HILL_SLOPE 1.91, HEPG2TOX_R_SQUARED 0.9, PBLUC_HILL_SLOPE 11.3, PBLUC_R_SQUARED 0.663, read-out: LUCIFERASE INFECTION ASSAY - IC50): 0.418 µM
O=C1/C(=C/c2cc(Cl)ccc2O)NC(=S)N1Cc1ccccc1Cl | 1.37 | IC50 (HEPG2TOX_HILL_SLOPE 1.93, HEPG2TOX_R_SQUARED 0.989, PBLUC_HILL_SLOPE 8.09, PBLUC_R_SQUARED 0.926, read-out: LUCIFERASE INFECTION ASSAY - IC50): 1.05 µM
